Assay: refractive index (Na D-line) (dimensionless); xn = mol fraction of the nth substance listed
Conditions: Liquid, Standard Abbe refractometry

Cc1cc(C)cc(C)c1 [1,3,5-trimethylbenzene] + C1COCCO1
refractive index
Conditions | 288.15 K | 293.15 K | 298.15 K | 303.15 K | 308.15 K | 313.15 K | 318.15 K
x2 = 0 | 1.502 | 1.4995 | 1.4969 | 1.4944 | 1.4918 | 1.4893 | 1.4868
x2 = 0.0696 | 1.4969 | 1.4942 | 1.4915 | 1.4888 | 1.4861 | 1.4834 | 1.4807
x2 = 0.1408 | 1.4916 | 1.4889 | 1.4862 | 1.4835 | 1.4807 | 1.4779 | 1.4751
x2 = 0.2098 | 1.4865 | 1.4838 | 1.4811 | 1.4784 | 1.4756 | 1.4729 | 1.4701
x2 = 0.28 | 1.4812 | 1.4786 | 1.4758 | 1.4731 | 1.4703 | 1.4676 | 1.4648
x2 = 0.3558 | 1.4755 | 1.4729 | 1.4702 | 1.4675 | 1.4648 | 1.4621 | 1.4593
x2 = 0.4276 | 1.4701 | 1.4675 | 1.4648 | 1.4622 | 1.4595 | 1.4568 | 1.4542
x2 = 0.5066 | 1.4641 | 1.4615 | 1.4589 | 1.4563 | 1.4537 | 1.451 | 1.4484
x2 = 0.5801 | 1.4584 | 1.4558 | 1.4532 | 1.4506 | 1.448 | 1.4454 | 1.4428
x2 = 0.6548 | 1.4525 | 1.45 | 1.4474 | 1.4449 | 1.4423 | 1.4397 | 1.4371
x2 = 0.7227 | 1.447 | 1.4445 | 1.442 | 1.4395 | 1.437 | 1.4344 | 1.4318
x2 = 0.7936 | 1.4412 | 1.4388 | 1.4363 | 1.4338 | 1.4313 | 1.4288 | 1.4263
x2 = 0.8663 | 1.4354 | 1.433 | 1.4306 | 1.4282 | 1.4257 | 1.4233 | 1.4208
x2 = 0.9319 | 1.43 | 1.4277 | 1.4254 | 1.4231 | 1.4208 | 1.4184 | 1.4161
